Consider two compounds from patent US20080260705A1, “Preventing Arrhythmias Associated with Cell Transplantation” (The Johns Hopkins University, priority 2004, published 2008).

One assay has as its system SkM:NRVM co-cultures. As to the kind of experiment: Pharmacological intervention for induced reentrant arrhythmias, optical mapping of mixed co-cultures. The format is cell-based. The conditions noted are these: n=12.
The subject of the next assay is L-type calcium channel. As to the kind of experiment: Nitrendipine dose response curve: APD and conduction velocity by optical mapping. The format is cell-based. The conditions noted are these: nitrendipine 5 μM.

Experimental for L-type calcium channel: (§1) Coverslips were visually inspected under a microscope. Monolayers with obvious gaps in confluency and non-beating cultures were rejected. The coverslips were placed in a custom-designed chamber, stained with 5 μM di-4-ANEPPS (Molecular Probes; Eugene, Oreg.) for 5 min and continuously superfused with warm (36.5° C.) oxygenated Tyrode solution consisting of (in mM) 135 NaCl, 5.4 KCl, 1.8 CaCl2, 1 MgCl2, 0.33 NaH2PO4, 5 HEPES, and 5 Glucose. A unipolar point or area electrode (4 bipolar line electrodes) was used to stimulate the cells in culture. Action potentials were recorded from 253 sites using a modified custom-built contact fluorescence imaging system.^15 The recording chamber was placed directly above a fiber bundle with fibers arranged in a 17 mm-diameter hexagonal array. A light emitting diode (LED) light source with an interference filter (530+/−25 mm) delivered excitation light to the chamber. […]
Baseline drift was reduced by subtraction of a fitted polynomial curve from the optical signal. […] To compare velocities among different episodes in the same monolayer, conduction velocity was calculated along the same path and averaged over different stimulus responses. […] Data are expressed as Mean +/−SEM unless stated otherwise. Differences between means were assessed using the Student's t test or Fischer's exact test.
Experimental for SkM:NRVM co-cultures: Human skeletal myoblasts were obtained from Cambrex (Walkersville, Md.) and grown in myoblast basal growth medium (SkBM, Clonetics) containing 10% fetal bovine serum, recombinant human epidermal factor (10 ng/ml), dexamethasone (3 μg/ml), L-glutamine, Gentamicin and Amphotericin-B, at 37° C. and 5% CO2. (Vials obtained from Cambrex contained 70-80% myoblasts, and the remainder were fibroblasts). The cells were seeded at 3,500 cells/cm^2 and maintained at cell densities of 60-70% to prevent myotube formation during the culture process. Cells were transduced with lentivirus on their second passage and frozen at −80° C. or amplified up to 10 population doublings. For co-cultures, myoblasts were dissociated using trypsin, counted and then used.
Cells were re-suspended in M199 culture medium (Life Technologies, Rockville, Md.), supplemented with 10% heat-inactivated fetal bovine serum (Life Technologies), differentially pre-plated in two 45 minute steps, and then counted using a hemocytometer. For control experiments, 10^6 cells were plated on 22 mm plastic coverslips coated with fibronectin (25 μg/ml). On day 2 after cell plating, serum was reduced to 2%.
Myoblasts and NRVMs were co-cultured (isotropic) on 22 mm plastic cover slips (coated with fibronectin, 25 μg/ml) for 9-11 days and then used for optical mapping. In an initial set of experiments, 0.5×10^6 NRVMs were plated over half of the cover slip, with the other half covered by a PDMS stamp coated with fibronectin (50 μg/ml). The PDMS stamp was removed 24 hours later and 0.5×10^6 myoblasts transduced with Lv-GFP were then plated. […] In a second set of experiments, the myoblasts (transduced with LvGFP) and NRVMs were plated at the same time in varying ratios: 1:1, 1:4 and 1:9 to study the electrophysiologic consequences of mixing the two cell types.
as §1

Take `CCN(CC)CC(=O)Nc1c(C)cccc1C` [lidocaine]: in the assay on SkM:NRVM co-cultures (lidocaine 200 μM superfused, co-cultures), the termination of reentry result is “did not terminate it in the majority of co-cultures”. For the same compound, the “slowed the reentry rate” value in the assay with SkM:NRVM co-cultures (lidocaine 200 μM superfused, induced reentry in co-cultures) is recorded as 70-80%.

`CCOC(=O)C1=C(C)NC(C)=C(C(=O)OC)C1c1cccc([N+](=O)[O-])c1` (centres unmarked) [nitrendipine]: the “shortened APD” value with L-type calcium channel is reported as 50%. Also, the “slowed the reentrant rhythms” value in the assay with SkM:NRVM co-cultures (nitrendipine 5 μM superfused, before termination) was 10-20%. In addition, the “time to abrupt termination of reentry” value in the assay on SkM:NRVM co-cultures (nitrendipine 5 μM, in all co-cultures) is at most 5 min.
